Key:
[1] = target: T1, 5-hydroxytryptamine receptor 1A (Homo sapiens, UniProt P08908); test: Binding affinity for 5-hydroxytryptamine 1A receptor
T1 sequence (P08908 whole entry): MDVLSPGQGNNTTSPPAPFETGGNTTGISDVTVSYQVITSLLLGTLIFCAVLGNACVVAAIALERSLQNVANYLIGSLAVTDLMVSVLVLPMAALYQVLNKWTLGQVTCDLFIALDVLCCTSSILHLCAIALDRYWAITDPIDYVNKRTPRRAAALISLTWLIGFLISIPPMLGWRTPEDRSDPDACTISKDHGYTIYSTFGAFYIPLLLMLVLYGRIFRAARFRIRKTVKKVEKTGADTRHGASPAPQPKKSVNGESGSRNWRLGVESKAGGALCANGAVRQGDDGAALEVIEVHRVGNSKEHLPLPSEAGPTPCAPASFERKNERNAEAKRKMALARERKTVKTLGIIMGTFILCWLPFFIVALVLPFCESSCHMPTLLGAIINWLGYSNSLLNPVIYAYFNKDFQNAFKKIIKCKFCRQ

[2] = target: 5-hydroxytryptamine receptor 1D (Sus scrofa, UniProt P79400); test: Binding affinity for 5-hydroxytryptamine 1D receptor
[3] = target: T2, Serotonin 3 (5-HT3) receptor (Rattus norvegicus) (UniProt P35563+Q9JJ16); test: Agonistic activity of compound towards 5-hydroxytryptamine 3 receptor in Von Bezold-Jarisch Reflex in rats at 60 (ug/kg), evaluated as change in heart rate; format: functional
[4] = target: T2, Serotonin 3 (5-HT3) receptor (Rattus norvegicus); test: Antagonistic activity of compound towards 5-hydroxytryptamine 3 receptor in Von Bezold-Jarisch Reflex in rats at 60 (ug/kg), evaluated as percent inhibition of bradycardia; format: functional
[5] = target: T2, Serotonin 3 (5-HT3) receptor (Rattus norvegicus); test: Agonistic activity of compound towards 5-hydroxytryptamine 3 receptor in Von Bezold-Jarisch Reflex in rats at 100 (ug/kg), evaluated as change in heart rate; format: functional
[6] = target: T3, Serotonin 3 (5-HT3) receptor (Rattus norvegicus, UniProt P35563+Q9JJ16); test: Binding affinity towards 5-hydroxytryptamine 3 receptor; format: protein-complex assay
T3 sequence (P35563 whole entry): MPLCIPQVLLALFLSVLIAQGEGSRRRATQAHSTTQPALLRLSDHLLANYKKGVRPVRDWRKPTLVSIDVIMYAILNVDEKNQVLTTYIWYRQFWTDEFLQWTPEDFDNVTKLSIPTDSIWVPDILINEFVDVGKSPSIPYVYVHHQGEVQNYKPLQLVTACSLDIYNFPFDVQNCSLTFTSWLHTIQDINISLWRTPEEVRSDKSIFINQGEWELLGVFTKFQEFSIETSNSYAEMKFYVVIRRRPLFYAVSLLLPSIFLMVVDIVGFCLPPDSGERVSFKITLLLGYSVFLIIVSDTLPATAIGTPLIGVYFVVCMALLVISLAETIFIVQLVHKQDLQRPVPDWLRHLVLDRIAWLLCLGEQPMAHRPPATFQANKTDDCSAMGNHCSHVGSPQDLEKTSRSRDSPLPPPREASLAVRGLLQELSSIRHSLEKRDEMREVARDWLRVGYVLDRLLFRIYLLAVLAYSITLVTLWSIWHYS
T3 sequence (Q9JJ16 whole entry): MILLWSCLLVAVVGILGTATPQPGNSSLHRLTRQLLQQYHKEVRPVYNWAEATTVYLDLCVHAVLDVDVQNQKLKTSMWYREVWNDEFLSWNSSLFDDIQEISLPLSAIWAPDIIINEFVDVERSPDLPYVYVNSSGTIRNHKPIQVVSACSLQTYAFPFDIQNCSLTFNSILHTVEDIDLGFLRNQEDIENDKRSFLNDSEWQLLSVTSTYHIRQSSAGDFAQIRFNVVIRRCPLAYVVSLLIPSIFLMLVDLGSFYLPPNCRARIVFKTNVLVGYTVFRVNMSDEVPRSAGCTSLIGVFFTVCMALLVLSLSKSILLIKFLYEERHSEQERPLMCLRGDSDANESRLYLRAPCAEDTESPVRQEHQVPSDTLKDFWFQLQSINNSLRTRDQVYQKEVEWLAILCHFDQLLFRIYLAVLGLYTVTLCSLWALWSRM

NG108-15 [7] = test: (§1) In vitro effective concentration against [14C]guanidinium uptake into NG 108-15 cells; format: functional, cell-based; details: Murinae
[8] = target: 5-hydroxytryptamine receptor 1B (Rattus norvegicus, UniProt P28564); test: Binding affinity for 5-hydroxytryptamine 1B receptor
[9] = target: 5-hydroxytryptamine receptor 2A (Bos taurus, UniProt Q75Z89); test: Binding affinity towards 5-hydroxytryptamine 2A receptor
[10] = target: T2, Serotonin 3 (5-HT3) receptor (Rattus norvegicus); test: Antagonistic activity of compound towards 5-hydroxytryptamine 3 receptor in Von Bezold-Jarisch reflex in rats at 60(ug/kg), evaluated as percent inhibition of bradycardia; format: functional
[11] = target: T4, 5-hydroxytryptamine receptor 2C (Homo sapiens, UniProt P28335); test: Binding affinity towards 5-hydroxytryptamine 2C receptor
T4 sequence (P28335 whole entry): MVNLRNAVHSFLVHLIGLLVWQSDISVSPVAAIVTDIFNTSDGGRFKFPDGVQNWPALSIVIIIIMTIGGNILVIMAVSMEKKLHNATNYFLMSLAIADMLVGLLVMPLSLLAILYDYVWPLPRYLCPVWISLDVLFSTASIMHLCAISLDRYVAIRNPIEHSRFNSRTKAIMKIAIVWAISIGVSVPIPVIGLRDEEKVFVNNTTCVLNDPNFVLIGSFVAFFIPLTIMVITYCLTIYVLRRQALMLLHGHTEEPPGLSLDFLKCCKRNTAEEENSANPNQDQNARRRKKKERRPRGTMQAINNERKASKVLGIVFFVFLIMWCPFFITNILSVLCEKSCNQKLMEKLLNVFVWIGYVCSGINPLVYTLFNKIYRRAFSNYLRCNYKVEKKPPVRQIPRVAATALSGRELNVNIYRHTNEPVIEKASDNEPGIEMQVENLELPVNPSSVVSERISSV

[12] = target: T2, Serotonin 3 (5-HT3) receptor (Rattus norvegicus); test: 5-Hydroxy tryptamine 3 receptor showing agonist activity (in vivo) in Von Bezold-Jarisch Reflex in rats at 120 (ug/kg), evaluated as change in heart rate; format: functional, organism-based
[13] = target: T2, Serotonin 3 (5-HT3) receptor (Rattus norvegicus); test: Agonistic activity of compound towards 5-hydroxytryptamine 3 receptorr in Von Bezold-Jarisch Reflex in rats at 100 (ug/kg), evaluated as change in heart rate; format: functional
NG108-15 [14] = test: as §1; format: functional; details: Murinae, read-out: ED50 (the source's name)
[15] = target: T2, Serotonin 3 (5-HT3) receptor (Rattus norvegicus); test: Antagonistic activity of compound towards 5-hydroxytryptamine 3 receptor in Von Bezold-Jarisch Reflex in rats at 100(ug/kg), evaluated as percent inhibition of bradycardia; format: functional

5-hydroxytryptamine receptor 1B, sequence (P28564 whole entry): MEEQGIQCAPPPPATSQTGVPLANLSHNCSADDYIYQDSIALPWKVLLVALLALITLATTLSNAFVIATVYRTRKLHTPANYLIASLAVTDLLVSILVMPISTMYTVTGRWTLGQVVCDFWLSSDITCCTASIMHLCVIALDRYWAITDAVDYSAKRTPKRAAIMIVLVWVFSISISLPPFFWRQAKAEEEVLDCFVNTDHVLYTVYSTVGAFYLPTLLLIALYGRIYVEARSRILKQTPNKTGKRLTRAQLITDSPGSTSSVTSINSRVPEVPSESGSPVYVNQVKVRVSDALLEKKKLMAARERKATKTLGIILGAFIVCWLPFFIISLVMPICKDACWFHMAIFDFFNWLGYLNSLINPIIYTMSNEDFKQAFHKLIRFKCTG
5-hydroxytryptamine receptor 1D, sequence (P79400 whole entry): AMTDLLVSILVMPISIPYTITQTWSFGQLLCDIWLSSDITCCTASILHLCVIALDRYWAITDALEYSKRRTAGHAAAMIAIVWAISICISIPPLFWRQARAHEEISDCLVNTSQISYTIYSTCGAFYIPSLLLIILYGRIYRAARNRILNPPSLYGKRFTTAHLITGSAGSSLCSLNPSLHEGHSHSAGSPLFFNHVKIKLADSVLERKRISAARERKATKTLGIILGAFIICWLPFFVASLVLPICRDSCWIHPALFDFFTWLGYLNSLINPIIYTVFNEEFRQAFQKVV
5-hydroxytryptamine receptor 2A, sequence (Q75Z89 whole entry): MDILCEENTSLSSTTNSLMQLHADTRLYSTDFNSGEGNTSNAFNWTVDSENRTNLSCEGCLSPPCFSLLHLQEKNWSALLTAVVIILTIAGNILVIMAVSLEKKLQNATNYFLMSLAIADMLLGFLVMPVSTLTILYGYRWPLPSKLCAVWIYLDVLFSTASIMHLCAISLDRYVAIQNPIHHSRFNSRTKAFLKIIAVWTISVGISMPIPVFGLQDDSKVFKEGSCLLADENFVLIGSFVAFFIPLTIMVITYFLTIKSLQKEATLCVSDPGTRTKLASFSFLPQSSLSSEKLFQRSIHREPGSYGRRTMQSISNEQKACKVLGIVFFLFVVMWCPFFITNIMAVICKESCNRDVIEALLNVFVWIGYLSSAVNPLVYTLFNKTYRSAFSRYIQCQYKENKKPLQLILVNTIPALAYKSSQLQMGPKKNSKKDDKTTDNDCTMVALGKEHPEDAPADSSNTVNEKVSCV

Structure (SMILES) | IC50 [1] | IC50 [2] | Change [3] | Change [4] | Change [5] | IC50 [6] | EC50 (NG108-15 [7]) | IC50 [8] | IC50 [9] | Change [10] | IC50 [11] | Change [12] | Change [13] | EC50 (NG108-15 [14]) | Change [15]
Fc1ccc(CN2CCN(c3nc4sccc4n4cccc34)CC2)cc1 | 14.5 µM | > 100 µM | 0% | 34% | 25% | 0.00117 µM | 0.005 µM | 1580 µM | 38 µM | – | – | – | – | – | –
c1cc2c(N3CCNCC3)nc3ccsc3n2c1 | 0.0589 µM | 0.603 µM | 35% | – | – | 0.012 µM | 0.08 µM | 0.0138 µM | 2.63 µM | 68% | 0.0347 µM | 0% | – | – | –
C=CCN1CCN(c2nc3sccc3n3cccc23)CC1 | 0.0676 µM | 0.468 µM | 30% | – | – | 0.000912 µM | – | 0.417 µM | 2.34 µM | 67% | 0.759 µM | – | 72% | 0.004 µM | –
c1ccc(CN2CCN(c3nc4sccc4n4cccc34)CC2)cc1 | 5.89 µM | 93.3 µM | – | – | 48% | 0.00457 µM | 0.03 µM | 91.2 µM | 19.5 µM | – | 3.72 µM | – | – | – | 67%
Clc1ccc(N2CCN(c3nc4ccsc4n4cccc34)CC2)cc1 | > 100 µM | > 100 µM | – | – | – | 245 µM | – | 302 µM | 372 µM | – | 102 µM | – | – | – | –
c1ccc(CN2CCN(c3nc4sc(-c5ccccc5)cc4n4cccc34)CC2)cc1 | 389 µM | 537 µM | – | – | – | 39.8 µM | – | > 100 µM | > 100 µM | – | 1000 µM | – | – | – | –
Fc1ccc(N2CCN(c3nc4ccsc4n4cccc34)CC2)cc1 | 43.7 µM | 275 µM | – | – | – | 97.7 µM | – | 70.8 µM | 447 µM | – | 72.4 µM | – | – | – | –
Fc1ccc(CN2CCN(c3nc4ccsc4n4cccc34)CC2)cc1 | 0.347 µM | 138 µM | – | – | – | 0.0214 µM | – | 14.5 µM | 22.4 µM | – | 7.41 µM | – | – | – | –
c1cc2c(N3CCN(Cc4ccc5c(c4)OCO5)CC3)nc3ccsc3n2c1 | 0.263 µM | 36.3 µM | – | – | – | 0.00257 µM | – | 3.09 µM | 11 µM | – | 0.457 µM | – | – | – | –
c1cc2c(N3CCCCC3)nc3ccsc3n2c1 | 64.6 µM | > 100 µM | – | – | – | 72.4 µM | – | > 100 µM | > 100 µM | – | 57.5 µM | – | – | – | –
FC(F)(F)c1cccc(N2CCN(c3nc4sc(-c5ccccc5)cc4n4cccc34)CC2)c1 | > 100 µM | > 100 µM | – | – | – | 1740 µM | – | > 100 µM | > 100 µM | – | 23.4 µM | – | – | – | –
